Values of other authors in patent US9398745B2, “Organic composition for protection of crops against black frost and the method for its application” (priority 2014, dated 2016).

System: animals
Conditions: tests performed on animals

## CC(O)CO (stereo not shown) [1,2 propanediol]
  toxicity: low toxicity
